For one data set, the system named is HepG2 cells. Nature of the data set: Cell toxicity (MTS cell viability) in HepG2 cells at 24 h. The settings on record: HepG2 at 100 μM. The class given is cell-based, human. The protocol:
(§1) d) In Vitro Determination of Cell Toxicity in HepG2, CHO-K1 and HeLa Cells at 24 h
(§2) HepG2 (human hepatocellular carcinoma cells) and CHO-K1 (Chinese hamster ovary cells) were both obtained from the American Type Culture Collection (ATCC). HepG2 were cultured in Minimum Essential Medium (MEM) containing Earl's salts solution with 1.87 mM Glutamax® and supplemented with 1 mM sodium pyruvate, 0.1 mM non-essential amino acids, 100000 U/L penicillin, 100000 μg/L streptomycin and 10% Foetal Bovine Serum. CHO-K1 were maintained in Ham's F-12 medium containing 1 mM Glutamax® and supplemented with 1 mM L-glutamine, 100000 U/L penicillin, 100000 μg/L streptomycin and 10% Foetal Bovine Serum. Promega CellTiter 96® Aqueous One Solution Cell Viability Assay, contains the tetrazolium salt (MTS) that dehydrogenase enzymes found in metabolically active cells turn into the aqueous soluble formazan product. The quantity of formazan product is proportional to the number of living cells in culture.
(§3) Compounds were dissolved in DMSO to achieve an initial concentration of 100 mM. Serial dilutions were made from this stock solution in DMSO to achieve a range of concentrations from 50 to 0.25 mM. The stock solution and serial dilutions were then diluted 1:100 with the respective cell culture medium. In the case of CHO-K1 cells, concentrations at 1000, 500, 250, 100, 50, 25, 10, 5 and 2.5 μM were prepared to assess IC50, whereas in the case of HepG2 cells, final concentrations at 1000, 100, 10 and 1 μM final were assayed in order to calculate the percentage of cell. The final DMSO concentration in all wells was 1% v/v. Cell lines were both incubated with test compounds for 24 hours. Relative cell viability was determined spectro-photometrically at 490 nm following the addition of the MTS dye and further one-hour incubation. Tamoxifen was used as the positive control.

For another data set, the system named is HeLa cells. Nature of the data set: Cell toxicity in HeLa cells at 24 h. The class given is cell-based. The note with it: HeLa at 100 μM. The protocol: as §1, §3
An analogous protocol was used to determine the cell toxicity in HeLa cells at 24 h.

A short description of data set [1]: Cell toxicity (MTS cell viability) in CHO-K1 cells at 24 h. The class given is cell-based. The settings on record: Chinese hamster. The protocol:
as §1, §2
Compounds were dissolved in DMSO to achieve an initial concentration of 100 mM. Serial dilutions were made from this stock solution in DMSO to achieve a range of concentrations from 50 to 0.25 mM. […] Relative cell viability was determined spectro-photometrically at 490 nm following the addition of the MTS dye and further one-hour incubation. […]

A further data set has as its system mice. Nature of the data set: In vivo predictive sedation-hypnosis test (traveled distance). The note with it: male CD1 mice; for % inhib motor activity: 98 μmol/kg ip, traveled distance over 30 min (first 5 min discarded) vs control. The protocol: b) In Vivo Determination of Predictive Sedative-Hypnotic Action
The in vivo effects of these compounds were assessed by a predictive sedation-hypnosis test in mice (D. J. Sanger et al., Eur. J. Pharmacol., 313, 35-42, 1996; and G. Griebel et al., Psychopharmacology, 146, 205-213, 1999).
Groups of 5-8 male CD1 mice, weighing 22-26 g at the time of test, were used. The test compounds were administered in single equimolecular intraperitoneal doses, suspended in 0.25% agar with one drop of Tween 80 in a volume of 10 mL/kg. Two doses were tested in each route. Control animals received the vehicle alone. Using a Smart System (Panlab, S. L., Spain) the traveled distance in cm is recorded for each mouse at 5-min intervals during a period of 30 minutes after intraperitoneal (ip) dosing. The inhibition percentage of traveled distance of treated animals versus control animals (the first 5 min were discarded) and ED50 values were calculated.

Data set [2] deals with α2 subunit of the GABAA receptor. Nature of the data set: Ligand-binding assay, competitive with radiolabeled flumazenil, spinal cord membranes. The note with it: 10^−5M compound; 1 nM radiolabeled flumazenil; rat spinal cord membranes. The protocol:
(§4) a) Ligand-Binding Assays. Determination of the Affinity of Test Compounds for α1- and α2-GABAA Receptor
(§5) Male Sprague-Dawley rats weighing 200-250 g at the time of experiment were used. After decapitation of the animal, the cerebellum (tissue that mostly contains α1-GABAA receptor) and spinal cord (tissue that mostly contains α2-GABAA receptor) were removed. The membranes were prepared according to the method by J. Lameh et al. (Prog. Neuro-Psychopharmacol. Biol. Psychiatry, 24, 979-991, 2000) and H. Noguchi et al. (Eur. J. Pharm., 434, 21-28, 2002) with slight modifications. Once the tissues weighed, they were suspended in 50 mM Tris.HCl (pH 7.4), 1:40 (v/v), or sucrose 0.32 M in the case of spinal cord, homogenized and then centrifuged at 20000 g for 10 min at 7° C. The resulting pellet was resuspended under the same conditions and centrifuged again. The pellet was finally resuspended on a minimum volume and kept at −80° C. overnight. On the next day, the process was repeated until the final pellet was resuspended at a ratio of 1:10 (v/v) in the case of cerebellum and at a ratio of 1:5 (v/v) in the case of spinal cord.
Affinity was determined by competitive tests using radiolabeled flumazenil as ligand. The tests were performed according to the methods described by S. Arbilla et al. (Eur. J. Pharmacol., 130, 257-263, 1986); and Y. Wu et al. (Eur. J. Pharmacol., 278,125-132, 1995) using 96-well microtiter plates. The membranes containing the study receptors, flumazenil (radiolabeling at a final concentration of 1 nM) and ascending concentrations of test compounds (in a total volume of 230 μL in 50 mM [ph 7.4] Tris.HCl buffer) were incubated. Simultaneously, the membranes were only incubated with the radiolabeled flumazenil (total binding, 100%) and in the presence of an elevated concentration of unradiolabeled flumazenil (non-specific binding, % estimation of radiolabeled ligand). […] The next day the plates were counted using a Perkin-Elmer Microbeta scintillation counter.
(§6) For analysis of the results the percentage of specific binding for every concentration of test compound was calculated as follows: % specific binding=(X−N/T−N)×100 where, • X: amount of bound ligand for every concentration of compound. • T: total binding, maximum amount bound to the radiolabeled ligand. • N: non-specific binding, amount of radiolabeled ligand bound in a non-specific way irrespective of the receptor used.
(§7) Every concentration of compounds was tested in triplicate and their mean values were used to determine the experimental values of % specific binding versus the concentration of compound. Affinity data are expressed as % inhibition at 10^−5M and 10^−7M concentrations for α1 subunit and at 10^-5M for α2 subunit.

In data set [3] the test system is α1 subunit of the GABAA receptor. Nature of the data set: Ligand-binding assay, competitive with radiolabeled flumazenil, cerebellum membranes. The note with it: 1 nM radiolabeled flumazenil, rat cerebellum membranes; for % inhib 10^−5M: 10^−5M compound; for % inhib 10^−7M: 10^−7M compound. The protocol: as §4, §5
Affinity was determined by competitive tests using radiolabeled flumazenil as ligand. The tests were performed according to the methods described by S. Arbilla et al. (Eur. J. Pharmacol., 130, 257-263, 1986); and Y. Wu et al. (Eur. J. Pharmacol., 278,125-132, 1995) using 96-well microtiter plates. The membranes containing the study receptors, flumazenil (radiolabeling at a final concentration of 1 nM) and ascending concentrations of test compounds (in a total volume of 230 μL in 50 mM [ph 7.4] Tris.HCl buffer) were incubated. Simultaneously, the membranes were only incubated with the radiolabeled flumazenil (total binding, 100%) and in the presence of an elevated concentration of unradiolabeled flumazenil (non-specific binding, % estimation of radiolabeled ligand). The reactions started on adding the radiolabeled ligand followed by incubation for 60 minutes at 4° C. At the end of the incubation period, 200 μL of reaction were transferred to a multiscreen plate (Millipore) and filtered using a vacuum manifold and then washed three times with cold test buffer. The multiscreen plates were equipped with a GF/B filter that retained the membranes containing the receptors and the radiolabeled ligand which had been bound to the receptors. After washing, the plates were left till dry. Once dried, scintillation liquid was added and left under stirring overnight. The next day the plates were counted using a Perkin-Elmer Microbeta scintillation counter.
as §6, §7

Data set [4] in a line: Metabolic stability in human hepatocytes cytosolic fraction. The data set is classed as in vitro ADME. The note with it: 5 μM compound, 1.0 mg/mL pooled human cytosol, 37° C. The protocol: c) In Vitro Determination of Metabolic Stability in Human Hepatocytes Cytosolic Fraction
Compounds were dissolved in dimethyl sulfoxide to achieve an initial concentration of 10 mM. This stock solution was then diluted with solvent and buffer to obtain final assay concentration of 5 μM. Compounds were tested at a single concentration of 5 μM in duplicate incubating with 1.0 mg/mL of pooled human cytosol (obtained from Xenotech plc) at 37° C. Metabolism was assessed in the presence or absence of cofactors and measured as loss of parent compound by LC/MS analysis at 0, 60 and 120-minutes time points. Percentages of remaining parent compounds were then calculated.

One may read the IC50 as the concentration that gives 50% inhibition. As for `CC(=O)N(C)c1cccc(-c2ccnc3c(C(=O)c4cccs4)cnn23)c1` [Example 1 of US 6399621 (indiplon), N-{3-[3-(thiophene-2-carbonyl)-pyrazolo[1,5-a]pyrimidin-7-yl]-phenyl}-N-methyl-acetamide, reference compound], the “% of cell viability” value with HepG2 cells was 70%; in the data set on HepG2 cells (listed as indiplon), 70%; with HeLa cells, 67.9%. Moreover, the IC50 at 24 h in data set [1] was 108 µM.
In the case of `CN(c1cc(-c2ccnc3c([N+](=O)[O-])cnn23)ccc1F)S(C)(=O)=O` [Preparative example 5, N-{2-fluoro-5-[3-nitro-pyrazolo[1,5-a]pyrimidin-7-yl]-phenyl}-N-methyl-methanesulfonamide], the “% inhib motor activity” value in the data set with mice is listed as 89.0%. In addition, the “% inhib 10^−5M” value in data set [2] was found to be 94.5%; in data set [3], 98.2%. In data set [3], the “% inhib 10^−7M” value came to 42.3%.
As to `CN(c1cc(-c2ccnc3c(C#N)cnn23)ccc1F)S(C)(=O)=O` [Preparative example 6, N-{2-fluoro-5-[3-cyano-pyrazolo[1,5-a]pyrimidin-7-yl]-phenyl}-N-methyl-methanesulfonamide], the “% inhib motor activity” value with mice is reported as 76.3%. For the same molecule, the “% inhib 10^−5M” value in data set [2] was determined as 87.5%; in data set [3] it was 98.1%. The “% of Parent” value in data set [4] (60 min) was determined as 86%; in data set [4] (120 min), 81%. For the same molecule, in data set [3], the “% inhib 10^−7M” value is 36.4%.
One may read the ED50 as the dose that gives a 50% effect, or the effect in half of the subjects. Turning to `Cc1nn2c(-c3ccc(F)c(N(C)S(C)(=O)=O)c3)ccnc2c1C#N` [Preparative example 11, N-{2-fluoro-5-[3-cyano-2-methyl-pyrazolo[1,5-a]pyrimidin-7-yl]-phenyl}-N-methyl-methanesulfonamide], the “% inhib motor activity” value in the data set with mice is recorded as 83.8%. In the data set with mice (Mus musculus, ip, read-out: ED50 in inducing sedation), the ED50 was 16.9 µmol/kg. In addition, the “% inhib 10^−5M” value was determined as 95.0% in data set [2] and 97.7% in data set [3]. The “% of cell viability” value was found to be 84.5% with HepG2 cells, 84.5% with HepG2 cells (listed as example 11) and 83.9% in the data set on HeLa cells. Moreover, the “% of Parent” value in data set [4] (60 min) was determined as 88%; in data set [4] (120 min), 82%. The “% inhib 10^−7M” value in data set [3] came to 41.8%. In data set [1], this molecule yielded an IC50 at 24 h of 186 µM.
Turning to `CC(=O)N(C)c1cc(-c2ccnc3c(C(=O)c4cccs4)cnn23)ccc1C` [Preparative example 13, N-{2-methyl-5-[3-(thiophene-2-carbonyl)-pyrazolo[1,5-a]pyrimidin-7-yl]-phenyl}-N-methyl-acetamide], the “% inhib motor activity” value in the data set on mice is 95.6%. Moreover, in data set [3], the “% inhib 10^−5M” value was 98.7% and the “% inhib 10^−7M” value came to 39.8%.
As for `COc1ccc(-c2ccnc3c(C(=O)c4cccs4)cnn23)cc1N(C)C(C)=O` [Preparative example 14, N-{2-methoxy-5-[3-(thiophene-2-carbonyl)-pyrazolo[1,5-a]pyrimidin-7-yl]-phenyl}-N-methyl-acetamide], the “% inhib motor activity” value in the data set with mice is 89.6%. In data set [3], the “% inhib 10^−5M” value is recorded as 97.3% and the “% inhib 10^−7M” value stood at 31.9%.
Take `CCN(C(C)=O)c1cccc(-c2ccnc3c(C#N)cnn23)c1` [Zaleplon, reference compound]: the “% inhib motor activity” value in the data set with mice is recorded as 84.9%. In addition, the “% inhib 10^−5M” value in data set [2] is reported as 77.4%.

The record behind these values is patent publication US8158632B2, “Pyrazolo[1,5-a]pyrimidines, processes, uses and compositions” (priority 2006, dated 2012).
